Measurements taken from patent publication US20240423914A1, “AMIDE CONTAINING LIPIDS” (Acuitas Therapeutics, Inc., priority 2023, published 2024).

System: human IgG in mouse serum
Experiment: Immunoglobulin G (IgG) mRNA in vivo evaluation using lipid nanoparticle compositions (human IgG ELISA of mouse serum)
Design: species or system CD-1/ICR mice
Conditions: lipid formulated as LNP (cationic lipid/DSPC/cholesterol/PEG lipid) with IgG mRNA, tail vein injection, mice, serum measured 24 hours after administration; for Serum IgG (ug/mL) @ 0.3 mg/kg: 0.3 mg mRNA/kg; for Serum IgG (ug/mL) @ 1.0 mg/kg: 1.0 mg mRNA/kg
Experimental: A lipid of Formula (I), DSPC, cholesterol and PEG-lipid of Formula (II) are solubilized in ethanol at a molar ratio of 50:10:38.5:1.5 or 47.5:10:40.7:1.8. Lipid nanoparticles (LNP) are prepared at a total lipid to mRNA weight ratio of approximately 10:1 to 40:1. Briefly, the mRNA is diluted to 0.2 mg/mL in 10 to 50 mM citrate buffer, pH 4 to 6 or 10 to 25 mM acetate buffer, pH 4 to 6. Syringe pumps are used to mix the ethanolic lipid solution with the mRNA aqueous solution at a ratio of about 1:5 to 1:3 (vol/vol) with total flow rates above 15 mL/min. The ethanol is then removed, and the external buffer replaced with PBS by dialysis. Finally, the lipid nanoparticles are filtered through a 0.2 μm pore sterile filter.
Studies are performed in 6-8-week-old CD-1/ICR mice (Charles River or Inotiv) according to guidelines established by an institutional animal care committee (ACC) and the Canadian Council on Animal Care (CCAC). Varying doses of mRNA-lipid nanoparticle are systemically administered by tail vein injection and animals euthanized at a specific time point (e.g., 24 hours) post-administration. The whole blood is collected, and the serum subsequentially separated by centrifuging the tubes of the whole blood at 2000×g for 10 minutes at 4° C. and stored at −80° C. until use for analysis.
For immunoglobulin G (IgG) ELISA (Life Diagnostics Human IgG ELISA kit), the serum samples are diluted at 100 to 20,000 fold with 1× diluent solution. 100 μL of diluted serum is dispensed into anti-human IgG coated 96-well plate in duplicate alongside human IgG standards and incubated in a plate shaker at 150 rpm at 25° C. for 45 minutes. The wells are washed 5 times with 1× wash solution using a plate washer (400 μL/well). 100 μL of HRP conjugate is added into each well and incubated in a plate shaker at the same condition above. The wells are washed 5 times again with 1× wash solution using a plate washer (400 μL/well). 100 μL of TMB reagent is added into each well and incubated in a plate shaker at the same condition above. The reaction is stopped by adding 100 μL of Stop solution to each well. The absorbance is read at 450 nm (A450) with a microplate reader. The amount of human IgG in mouse serum is determined by plotting A450 values for the assay standard against human IgG concentration.
Representative compounds of the disclosure shown in Table 2 were formulated using the following molar ratio: 50% cationic lipid/10% distearoylphosphatidylcholine (DSPC)/38.5% Cholesterol/1.5% PEG lipid 2-[2-(ω-methoxy(polyethyleneglycol2000)ethoxy]-N,N-ditetradecylacetamide) or 47.5% cationic lipid/10% DSPC/40.7% Cholesterol/1.8% PEG lipid. Relative activity was determined by measuring the amount of human IgG in mouse serum as described in Example 2. The activity was compared at a dose of 1.0 or 0.3 mg mRNA/kg and expressed as ng luciferase/g liver measured 4 hours after administration, as described in Example 1 or as μg IgG/mL serum measured 24 hours after administration, as described in Example 2. Compound numbers in Table 2 refer to the compound numbers of Table 1.

SMILES: CCCCCCCCCCN(CCCCCCCCCC)C(=O)CCCCCCCCC(CCCCCCCCC(=O)N(CCCCCCCCCC)CCCCCCCCCC)N(CCCCCCCCCC)C(=O)CCN(C)C [Compound I-1, N^1,N^1,N^19,N^19-tetrakis(decyl)-10-(N-decyl-3-(dimethylamino)propanamido)nonadecanediamide]
- Serum IgG (ug/mL) @ 0.3 mg/kg: 18.5 ± 6.7 µg/mL

SMILES: CCCCCCCCCCN(CCCCCCCCCC)C(=O)CCCCCCCN(CCCCCCCC(=O)N(CCCCCCCCCC)CCCCCCCCCC)C(=O)C(F)CCN(C)C (stereo not shown) [Compound I-2, N,N-didecyl-8-(N-(8-(didecylamino)-8-oxooctyl)-4-(dimethylamino)-2-fluorobutanamido)octanamide]
- Serum IgG (ug/mL) @ 0.3 mg/kg: 23.2 ± 6.1 µg/mL
- Serum IgG (ug/mL) @ 1.0 mg/kg: 69.8 ± 18.2 µg/mL

SMILES: CCCCCCCCCCN(CCCCCCCCN(CCCCCCCC(=O)N(CCCCCCCCCC)CCCCCCCCCC)C(=O)C(F)CCN(C)C)C(=O)CCCCCCCCC (stereo not shown) [Compound I-3, N-decyl-N-(8-(N-(8-(didecylamino)-8-oxooctyl)-4-(dimethylamino)-2-fluorobutanamido)octyl)decanamide]
- Serum IgG (ug/mL) @ 0.3 mg/kg: 16.2 ± 4.3 µg/mL
- Serum IgG (ug/mL) @ 1.0 mg/kg: 52.7 ± 8.4 µg/mL

SMILES: CCCCCCCCCCN(CCCCCCCCCC)C(=O)CCCCCCCN(CCCCCCCC(=O)N(CCCCCCCCCC)CCCCCCCCCC)C(=O)CN(C)C [Compound I-4, N,N-didecyl-8-(N-(8-(didecylamino)-8-oxooctyl)-2-(dimethylamino)acetamido)octanamide]
- Serum IgG (ug/mL) @ 0.3 mg/kg: 24.2 ± 4.5 µg/mL

SMILES: CCCCCCCCCCN(CCCCCCCCN(CCCCCCCC(=O)N(CCCCCCCCCC)CCCCCCCCCC)C(=O)CN(C)C)C(=O)CCCCCCCCC [Compound I-5, N-decyl-N-(8-(N-(8-(didecylamino)-8-oxooctyl)-2-(dimethylamino)acetamido)octyl)decanamide]
- Serum IgG (ug/mL) @ 0.3 mg/kg: 25.9 ± 11.8 µg/mL
- Serum IgG (ug/mL) @ 1.0 mg/kg: 73.4 ± 14.9 µg/mL

SMILES: CCCCCCCCCCN(CCCCCCCCCC)C(=O)CCCCCCCN(CCCCCCCC(=O)N(CCCCCCCCCC)CCCCCCCCCC)C(=O)OCCN(C)C [Compound I-6, 2-(dimethylamino)ethyl bis(8-(didecylamino)-8-oxooctyl)carbamate]
- Serum IgG (ug/mL) @ 0.3 mg/kg: 20.5 ± 4.0 µg/mL
- Serum IgG (ug/mL) @ 1.0 mg/kg: 197.5 ± 39.3 µg/mL

SMILES: CCCCCCCCCCN(CCCCCCCCCC)C(=O)CCCCCCCN(CCCCCCCC(=O)N(CCCCCCCCCC)CCCCCCCCCC)C(=O)OCCCN(C)C [Compound I-7, 3-(dimethylamino)propyl bis(8-(didecylamino)-8-oxooctyl)carbamate]
- Serum IgG (ug/mL) @ 0.3 mg/kg: 30.8 ± 7.5 µg/mL

SMILES: CCCCCCCCCCN(CCCCCCCCCC)C(=O)CCCCCCCCCN(CCCCCCCCCC(=O)N(CCCCCCCCCC)CCCCCCCCCC)C(=O)OCCCN(C)C [Compound I-8, 3-(dimethylamino)propyl bis(10-(didecylamino)-10-oxodecyl)carbamate]
- Serum IgG (ug/mL) @ 0.3 mg/kg: 10.6 ± 5.0 µg/mL

SMILES: CCCCCCCCCCN(CCCCCCCCCC)C(=O)CCCCCCCCC(CCCCCCCCC(=O)N(CCCCCCCCCC)CCCCCCCCCC)OC(=O)CCCCN(C)C [Compound I-9, 1,19-bis(didecylamino)-1,19-dioxononadecan-10-yl 5-(dimethylamino)pentanoate]
- Serum IgG (ug/mL) @ 0.3 mg/kg: 13.4 ± 7.5 µg/mL
- Serum IgG (ug/mL) @ 1.0 mg/kg: 59.5 ± 25.6 µg/mL

SMILES: CCCCCCCCCCN(CCCCCCCCCC)C(=O)CCCCCCCCC(CCCCCCCCC(=O)N(CCCCCCCCCC)CCCCCCCCCC)OC(=O)CCCN(C)C [Compound I-10, 1,19-bis(didecylamino)-1,19-dioxononadecan-10-yl 4-(dimethylamino)butanoate]
- Serum IgG (ug/mL) @ 0.3 mg/kg: 19.0 ± 3.3 µg/mL

SMILES: CCCCCCCCCCN(CCCCCCCCCC)C(=O)CCCCCCCCC(CCCCCCCCC(=O)N(CCCCCCCCCC)CCCCCCCCCC)N(CCCCCCCCCC)C(=O)C(F)CCCN(C)C (stereo not shown) [Compound I-12, N^1,N^1,N^19,N^19-tetrakis(decyl)-10-(n-decyl-5-(dimethylamino)-2-fluoropentanamido)nonadecanediamide]
- Serum IgG (ug/mL) @ 0.3 mg/kg: 13.9 ± 4.7 µg/mL

SMILES: CCCCCCCCCCN(CCCCCCCCCC)C(=O)CCCCCCCCC(CCCCCCCCC(=O)N(CCCC)C(CCCCCCCC)CCCCCCCC)N(CCCCCCCCCC)C(=O)CCN(C)C (stereo not shown) [Compound I-17, N^1-butyl-N^19,N^19-didecyl-10-(n-decyl-3-(dimethylamino)propanamido)-N-(heptadecan-9-yl)nonadecanediamide]
- Serum IgG (ug/mL) @ 0.3 mg/kg: 10.1 ± 4.03 µg/mL

SMILES: CCCCCCCCCCN(CCCCCCCCCC)C(=O)CCCCCC(CCCCCC(=O)N(CCCCCCCCCC)CCCCCCCCCC)OC(=O)CCCN(C)C [Compound I-18, 1,13-bis(didecylamino)-1,13-dioxotridecan-7-yl 4-(dimethylamino)butanoate]
- Serum IgG (ug/mL) @ 0.3 mg/kg: 18.0 ± 2.0 µg/mL

SMILES: CCCCCCCCCCCCN(CCCCCCCCCCN(CCCCCCCCCCN(CCCCCCCCCCCC)C(=O)CCCCCCC)C(=O)OCCCN1CCCC1)C(=O)CCCCCCC [Compound I-20, 3-(pyrrolidin-1-yl)propyl bis(10-(n-dodecyloctanamido)decyl)carbamate]
- Serum IgG (ug/mL) @ 0.3 mg/kg: 7.9 ± 3.6 µg/mL
